Source: patent US9951035B2, “Selective matrix metalloproteinase inhibitors” (University of Notre Dame du Lac, priority 2014, dated 2018)

Assays:
Assay type in all cases: biochemical
[1] = target: ADAM9 (Homo sapiens (Human), UniProt Q13443); assay: Enzyme inhibition studies, ADAM9; conditions: at 20 μM; read-out: Inhibition
[2] = target: ADAM10 (Homo sapiens (Human), UniProt O14672); assay: Enzyme inhibition studies, ADAM10; conditions: at 20 μM; read-out: Inhibition
[3] = target: MMP-9 (Homo sapiens (Human), UniProt P14780); assay: Enzyme inhibition studies, MMP-9 catalytic domain; conditions: read-out: MMP-9 Ki
MMP-9, sequence (P14780 107-444): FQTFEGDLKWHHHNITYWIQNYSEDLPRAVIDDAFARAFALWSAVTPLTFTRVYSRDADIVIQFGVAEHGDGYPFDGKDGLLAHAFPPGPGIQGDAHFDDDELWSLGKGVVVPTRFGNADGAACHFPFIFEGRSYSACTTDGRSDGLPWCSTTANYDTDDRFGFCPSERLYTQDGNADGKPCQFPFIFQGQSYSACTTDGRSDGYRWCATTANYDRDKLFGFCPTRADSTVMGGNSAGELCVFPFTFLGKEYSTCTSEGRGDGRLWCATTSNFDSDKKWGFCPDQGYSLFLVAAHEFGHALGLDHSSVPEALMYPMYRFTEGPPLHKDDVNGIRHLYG

ADAM10, sequence (O14672 214-672): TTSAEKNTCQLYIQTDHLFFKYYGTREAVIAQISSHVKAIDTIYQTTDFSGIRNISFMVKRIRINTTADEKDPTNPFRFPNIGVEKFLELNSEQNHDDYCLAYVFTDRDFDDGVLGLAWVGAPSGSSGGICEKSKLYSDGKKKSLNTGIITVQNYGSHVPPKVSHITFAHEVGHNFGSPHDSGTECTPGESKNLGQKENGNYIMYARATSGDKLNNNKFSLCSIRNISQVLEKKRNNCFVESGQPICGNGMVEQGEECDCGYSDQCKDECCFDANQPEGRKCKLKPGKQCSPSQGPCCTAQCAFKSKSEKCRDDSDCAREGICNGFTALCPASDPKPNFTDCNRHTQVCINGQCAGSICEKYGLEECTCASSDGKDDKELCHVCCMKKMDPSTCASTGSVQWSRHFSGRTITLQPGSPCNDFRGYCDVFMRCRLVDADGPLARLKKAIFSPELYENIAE
ADAM9, sequence (Q13443 206-697): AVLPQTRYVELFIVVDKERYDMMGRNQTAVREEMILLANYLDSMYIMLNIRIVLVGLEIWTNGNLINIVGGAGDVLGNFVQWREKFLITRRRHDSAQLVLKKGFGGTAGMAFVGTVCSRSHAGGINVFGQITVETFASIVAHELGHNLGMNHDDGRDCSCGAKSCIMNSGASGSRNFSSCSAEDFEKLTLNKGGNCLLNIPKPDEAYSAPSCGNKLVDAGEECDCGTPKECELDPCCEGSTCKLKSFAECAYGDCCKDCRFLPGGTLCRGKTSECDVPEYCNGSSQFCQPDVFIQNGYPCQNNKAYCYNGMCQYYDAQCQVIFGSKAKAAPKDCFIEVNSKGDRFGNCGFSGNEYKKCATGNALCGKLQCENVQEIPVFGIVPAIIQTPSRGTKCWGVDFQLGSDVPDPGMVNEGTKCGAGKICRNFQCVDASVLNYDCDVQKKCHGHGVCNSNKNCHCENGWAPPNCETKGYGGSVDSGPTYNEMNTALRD

O=S(=O)(CC1CS1)c1ccc(Oc2ccccc2)cc1 (stereo not drawn) [Compound 1, reference compound]
inhibition at 20 µM [1]: 36%
inhibition at 20 µM [2]: 34%

COC(=O)Nc1ccc(Oc2ccc(S(=O)(=O)CC3CS3)cc2)cc1 (stereo not drawn) [ND-380]
Ki [3]: 180 ± 30 nM
